According to PMC10396955, “2-Oxabicyclo[2.1.1]hexanes as saturated bioisosteres of the ortho-substituted phenyl ring” (Nature Chemistry, 2023):
Converted amounts (≈) assume the structure as drawn.

Test system: not listed separately
Experiment: Kinetic solubility in phosphate-buffered saline, pH 7.4
Assay type: physicochemical
Conditions: phosphate-buffered saline, 25 °C, pH 7.4, aqueous buffer, kinetic from dmso stock, Table S1; incubation 1; read-out: PBS solubility, pH 7.4, Incubation 1
Experimental: Analysis of Aqueous Solubility […]
compound (Ondansetron) were assessed for kinetic solubility in phosphate-buffered saline, pH […]
Phosphate buffered saline, pH 7.4 (Sigma-Aldrich, USA; Cat #P3813) […]
MultiScreen HTS 96 Well Filter Plates (Millipore, Ireland; Cat # MSGVS2210) […]
Matrix Multichannel Electronic Pipette 2-125 µL, 5-250 µL, 15-1250 µL (Thermo Scientific, […]
Vacuum pump (Millipore, USA; Model # XX5500000)
The measurements were performed using SpectraMax Plus reader in UV-Vis mode. Acquisition and analysis of the data were performed using SoftMax Pro v.5.4 (Molecular Devices) and Excel […]
Kinetic solubility assay was performed according to the Enamine’s aqueous solubility SOP.
Briefly, using a 20 mM stock solution of the compound in 100% DMSO dilutions were prepared to a theoretical concentration of 400 μM in duplicates in phosphate-buffered saline pH 7.4 […]
for two hours and then filtered through HTS filter plates using a vacuum manifold. The filtrates of test compounds were diluted 2-fold with acetonitrile with 2% DMSO before measuring.
In parallel, compound dilutions in acetonitrile/PBS (1:1) were prepared to theoretical […]
DMSO to generate calibration curves. Ondansetron was used as reference compound to control proper assay performance. 200 μl of each sample was transferred to 96-well plate and measured in 200-550 nm range with 5 nm step.
The concentrations of compounds in PBS filtrate are calculated using a dedicated Microsoft Excel calculation script. Proper absorbance wavelengths for calculations are selected for each compound manually based on absorbance maximums (absolute absorbance unit values for the minimum and maximum concentration points within 0 – 3 OD range). Each of the final datasets is additionally visually evaluated by the operator and goodness of fit (R2) is calculated for each calibration curve. The effective range of this assay is approximately 2-400 μM and the […]

Compound | solubility at 2 h
O=C(NC1CCN(CCCCC2(C(=O)NCC(F)(F)F)c3ccccc3-c3ccccc32)CC1)[C@@H]1[C@@H]2CC[C@@]1(c1ccc(C(F)(F)F)cc1)C2 (relative stereo) [Compound 34] | 2 µM (≈ 1.4 µg/mL)

Same assay, conditions: phosphate-buffered saline, 25 °C, pH 7.4, aqueous buffer, kinetic from dmso stock, Table S1; incubation 2; read-out: PBS solubility, pH 7.4, Incubation 2

Compound | solubility at 2 h
O=C(NC1CCN(CCCCC2(C(=O)NCC(F)(F)F)c3ccccc3-c3ccccc32)CC1)[C@@H]1[C@@H]2CC[C@@]1(c1ccc(C(F)(F)F)cc1)C2 (relative stereo) [Compound 34] | 2 µM (≈ 1.4 µg/mL)

Same assay, conditions: phosphate-buffered saline, 25 °C, pH 7.4, aqueous buffer, kinetic from dmso stock, Table S1; mean of 2 incubations; 25 °C, 2 h, 2% DMSO; effective range approx. 2-400 μM; read-out: PBS solubility, pH 7.4, Mean

Compound | solubility at 2 h
O=C(NC1CCN(CCCCC2(C(=O)NCC(F)(F)F)c3ccccc3-c3ccccc32)CC1)[C@@H]1[C@@H]2CC[C@@]1(c1ccc(C(F)(F)F)cc1)C2 (relative stereo) [Compound 34] | 2 µM (≈ 1.4 µg/mL)

Same assay, conditions: phosphate-buffered saline, 25 °C, pH 7.4, aqueous buffer, kinetic from dmso stock, experimental kinetic solubility in phosphate-buffered saline at pH 7.4; Fig. 3; read-out: Solubility

Compound | solubility at 2 h
O=C(NC1CCN(CCCCC2(C(=O)NCC(F)(F)F)c3ccccc3-c3ccccc32)CC1)[C@@H]1[C@@H]2CC[C@@]1(c1ccc(C(F)(F)F)cc1)C2 (relative stereo) [Compound 34] | 2 ± 0.2 µM (≈ 1.4 µg/mL)

Test system: human liver microsomes
Experiment: Metabolic stability in human liver microsomes
Assay type: in vitro ADME
Conditions: human liver microsomes
Experimental: (§1) The data acquisition and system control was performed using Analyst 1.6.3 software from AB Sciex. Methods Microsomal incubations were carried out in 96-well plates in 5 aliquots of 30 μL each (one for each time point). […] In the control reactions the NADPH-cofactor system was substituted with phosphate buffer. […] Each reaction was performed in duplicates. Five time points over 40 minutes were analyzed. The reactions were stopped by adding 4 volumes of methanol containing internal standard to incubation aliquots, followed by protein sedimentation by centrifuging at 5500 rpm for 4 minutes. […]. Supernatants were analyzed using the HPLC system coupled with tandem mass spectrometer. […] In some cases, the last time point is excluded from the calculations to ensure acceptable logarithmic linearity of decay.

Compound | CIint, intrinsic clearance
O=C(NC1CCN(CCCCC2(C(=O)NCC(F)(F)F)c3ccccc3-c3ccccc32)CC1)[C@@H]1[C@@H]2CC[C@@]1(c1ccc(C(F)(F)F)cc1)C2 (relative stereo) [Compound 34] | 157 µL/min/mg

Test system: not listed separately
Experiment: Metabolic stability in human liver microsomes
Assay type: in vitro ADME
Conditions: both sexes, human, liver microsomes, pH 7.4, human liver microsomes, 2 μM, 37 °C, with NADPH; 7 min
Experimental: as §1

Compound | remaining at […], 2 µM
O=C(NC1CCN(CCCCC2(C(=O)NCC(F)(F)F)c3ccccc3-c3ccccc32)CC1)[C@@H]1[C@@H]2CC[C@@]1(c1ccc(C(F)(F)F)cc1)C2 (relative stereo) [Compound 34] | 76%

Same assay, conditions: both sexes, human, liver microsomes, pH 7.4, human liver microsomes, 2 μM, 37 °C, with NADPH; 15 min

Compound | remaining at […], 2 µM
O=C(NC1CCN(CCCCC2(C(=O)NCC(F)(F)F)c3ccccc3-c3ccccc32)CC1)[C@@H]1[C@@H]2CC[C@@]1(c1ccc(C(F)(F)F)cc1)C2 (relative stereo) [Compound 34] | 41%

Same assay, conditions: both sexes, human, liver microsomes, pH 7.4, human liver microsomes, 2 μM, 37 °C, with NADPH; 25 min; read-out: % Remaining, Mean of 2

Compound | remaining at 25 min, 2 µM
O=C(NC1CCN(CCCCC2(C(=O)NCC(F)(F)F)c3ccccc3-c3ccccc32)CC1)[C@@H]1[C@@H]2CC[C@@]1(c1ccc(C(F)(F)F)cc1)C2 (relative stereo) [Compound 34] | 21%

Same assay, conditions: both sexes, human, liver microsomes, pH 7.4, human liver microsomes, 2 μM, 37 °C, with NADPH; 40 min; read-out: % Remaining, Mean of 2

Compound | remaining at 40 min, 2 µM
O=C(NC1CCN(CCCCC2(C(=O)NCC(F)(F)F)c3ccccc3-c3ccccc32)CC1)[C@@H]1[C@@H]2CC[C@@]1(c1ccc(C(F)(F)F)cc1)C2 (relative stereo) [Compound 34] | 8%

Same assay, conditions: both sexes, human, liver microsomes, pH 7.4, human liver microsomes, 0.42 mg protein per ml; Table S3; * approximate due to high stability; read-out: Clint

Compound | microsomal CLint at 2 µM
O=C(NC1CCN(CCCCC2(C(=O)NCC(F)(F)F)c3ccccc3-c3ccccc32)CC1)[C@@H]1[C@@H]2CC[C@@]1(c1ccc(C(F)(F)F)cc1)C2 (relative stereo) [Compound 34] | 157 µL/min/mg

Same assay, conditions: both sexes, human, liver microsomes, pH 7.4, human liver microsomes; * approximate due to high stability; read-out: t1/2

Compound | half-life at 2 µM
O=C(NC1CCN(CCCCC2(C(=O)NCC(F)(F)F)c3ccccc3-c3ccccc32)CC1)[C@@H]1[C@@H]2CC[C@@]1(c1ccc(C(F)(F)F)cc1)C2 (relative stereo) [Compound 34] | 10.6 min

Same assay, conditions: both sexes, pH 7.4; human liver microsomes, no NADPH cofactor; 40 min; ** instability partially or completely not determined by CYP450 activity; read-out: % Remaining without cofactor, Mean of 2

Compound | remaining at 40 min, 2 µM
O=C(NC1CCN(CCCCC2(C(=O)NCC(F)(F)F)c3ccccc3-c3ccccc32)CC1)[C@@H]1[C@@H]2CC[C@@]1(c1ccc(C(F)(F)F)cc1)C2 (relative stereo) [Compound 34] | 91%

Same assay, conditions: both sexes, pH 7.4; human liver microsomes; elimination constant; * approximate due to high stability; read-out: kel (converted)

Compound | k el at 2 µM
O=C(NC1CCN(CCCCC2(C(=O)NCC(F)(F)F)c3ccccc3-c3ccccc32)CC1)[C@@H]1[C@@H]2CC[C@@]1(c1ccc(C(F)(F)F)cc1)C2 (relative stereo) [Compound 34] | 0.00108 s⁻¹

Test system: not listed separately
Experiment: physchem
Assay type: physicochemical
Conditions: Table S2; n-octanol/PBS pH 7.4; incubation 1
Experimental: Determination of Distribution Coefficient (LogD, pH 7.4) […]
n-octanol – phosphate buffered saline (PBS), pH 7.4. Distribution coefficient (or LogD) is a […]
Phosphate buffered saline, tablet (Sigma-Aldrich, USA; Cat # P4417)
Acetic acid (Enamine, Ukraine.)
DMSO stock solutions of the test compounds 10mM
Gradient HPLC system (Shimadzu, Japan)
MTR22 Multi Mix Rotator (UNICO, USA)
Laboratory Centrifuge, Sigma 4-15C, Qiagen (SIGMA GmbH, Germany) […]
allowed to mix in a rotator for 1 h at 30 rpm. Phase separation was assured by centrifugation for […]
dilution. The samples (both phases) were analyzed using a HPLC system coupled with a tandem mass spectrometer. Mebendazole was used as a reference compound. […]
where: SO – peak area of the analyte in octanol phase
S P – peak area of the analyte in PBS buffer do – dilution coefficient for octanol phase dp – dilution coefficient for aqueous phase

Compound | D (partition ratio), incubation 1
O=C(NC1CCN(CCCCC2(C(=O)NCC(F)(F)F)c3ccccc3-c3ccccc32)CC1)[C@@H]1[C@@H]2CC[C@@]1(c1ccc(C(F)(F)F)cc1)C2 (relative stereo) [Compound 34] | 3.53E+08

Same assay, conditions: Table S2; n-octanol/PBS pH 7.4; incubation 2

Compound | D (partition ratio), incubation 2
O=C(NC1CCN(CCCCC2(C(=O)NCC(F)(F)F)c3ccccc3-c3ccccc32)CC1)[C@@H]1[C@@H]2CC[C@@]1(c1ccc(C(F)(F)F)cc1)C2 (relative stereo) [Compound 34] | 3.40E+06

Same assay, conditions: Table S2; n-octanol/PBS pH 7.4; incubation 3

Compound | D (partition ratio), incubation 3
O=C(NC1CCN(CCCCC2(C(=O)NCC(F)(F)F)c3ccccc3-c3ccccc32)CC1)[C@@H]1[C@@H]2CC[C@@]1(c1ccc(C(F)(F)F)cc1)C2 (relative stereo) [Compound 34] | 1.71E+05

Same assay, conditions: pH 7.4, LogD, pH 7.4 (mean)

Compound | logD at 1 h
O=C(NC1CCN(CCCCC2(C(=O)NCC(F)(F)F)c3ccccc3-c3ccccc32)CC1)[C@@H]1[C@@H]2CC[C@@]1(c1ccc(C(F)(F)F)cc1)C2 (relative stereo) [Compound 34] | > 4.5

Same assay, conditions: pH 7.4, LogD, pH 7.4, incubation 1

Compound | logD at 1 h
O=C(NC1CCN(CCCCC2(C(=O)NCC(F)(F)F)c3ccccc3-c3ccccc32)CC1)[C@@H]1[C@@H]2CC[C@@]1(c1ccc(C(F)(F)F)cc1)C2 (relative stereo) [Compound 34] | > 4.5

Same assay, conditions: pH 7.4, LogD, pH 7.4, incubation 2

Compound | logD at 1 h
O=C(NC1CCN(CCCCC2(C(=O)NCC(F)(F)F)c3ccccc3-c3ccccc32)CC1)[C@@H]1[C@@H]2CC[C@@]1(c1ccc(C(F)(F)F)cc1)C2 (relative stereo) [Compound 34] | > 4.5

Same assay, conditions: pH 7.4, LogD, pH 7.4, incubation 3

Compound | logD at 1 h
O=C(NC1CCN(CCCCC2(C(=O)NCC(F)(F)F)c3ccccc3-c3ccccc32)CC1)[C@@H]1[C@@H]2CC[C@@]1(c1ccc(C(F)(F)F)cc1)C2 (relative stereo) [Compound 34] | > 4.5

Same assay, conditions: pH 7.4, logD (7.4)

Compound | logD at 1 h
O=C(NC1CCN(CCCCC2(C(=O)NCC(F)(F)F)c3ccccc3-c3ccccc32)CC1)[C@@H]1[C@@H]2CC[C@@]1(c1ccc(C(F)(F)F)cc1)C2 (relative stereo) [Compound 34] | > 4.5
